ChEMBL document CHEMBL1136858, “Synthesis of hydroxycoumarins and hydroxybenzo[f]- or [h]coumarins as lipid peroxidation inhibitors” (Bioorg Med Chem Lett, 2009)
Calls of active or inactive are those of the source. The rule behind the calls is not given here.

Assays:
Rattus norvegicus = experiment: Antiinflammatory activity in rat assessed as inhibition of carrageenan-induced paw edema at 0.01 mmol/kg, ip after 3.5 hrs; assay type: functional
[1] = tested on: Radical scavenging activity; experiment: Antioxidant activity assessed as DPPH radical scavenging activity at 0.05 mM after 60 mins; assay type: functional
[2] = tested on: Radical scavenging activity; experiment: Antioxidant activity assessed as DPPH radical scavenging activity at 0.01 mM after 60 mins; assay type: functional
Glycine max = experiment: Inhibition of soybean lipoxygenase at 100 uM by UV absorbance based assay
[3] = tested on: Radical scavenging activity; experiment: Antioxidant activity assessed as DPPH radical scavenging activity at 0.01 mM after 20 mins; assay type: functional
[4] = tested on: Radical scavenging activity; experiment: Antioxidant activity assessed as DPPH radical scavenging activity at 0.05 mM after 20 mins; assay type: functional
[5] = Antioxidant activity assessed as inhibition of AAPH-induced lipid peroxidation at 100 uM; assay type: functional
[6] = Antioxidant activity assessed as superoxide radical scavenging activity at 100 uM by nitroblue tetrazolium method; assay type: functional
[7] = Inhibition of soybean lipoxygenase by UV absorbance based assay; parameters: species or system Glycine max

Row | SMILES | inhibition in vivo at 10 µmol/kg (Rattus norvegicus) [%] | Activity [1] | Activity [2] [%] | inhibition (Glycine max) | Activity [3] [%] | Activity [4] | inhibition [5] | inhibition [6] | IC50 [7] [µM] | Activity (Rattus norvegicus)
1 | COc1ccc2c(c1)c(CC(=O)O)c(C)n2C(=O)c1ccc(Cl)cc1 [INDOMETHACIN] | 47 | – | – | – | – | – | – | – | – | –
2 | O=c1ccc2ccccc2o1 [COUMARIN] | 30 | inactive | 21 | 15% | 5 | inactive | – | – | – | –
3 | O=c1ccc2cc(O)c3ccccc3c2o1 | 39 | 72% | 89 | – | 77 | 65% | 100% | 61% | 100 | –
4 | O=c1ccc2cccc(O)c2o1 [8-Hydroxycoumarin] | 18 | 30% | 32 | 37% | 33 | 31% | 28% | 56% | – | –
5 | CC(Cc1ccc(O)c(O)c1)C(C)Cc1ccc(O)c(O)c1 (stereo not drawn) | – | 72% | 83 | – | 81 | 68% | – | – | – | –
6 | Cc1c(O)ccc2ccc(=O)oc12 | – | 15% | 27 | 25% | 26 | 14% | inactive | 60% | – | –
7 | Cc1ccc2ccc(=O)oc2c1 | 55 | inactive | 2 | 89% | 2 | inactive | – | – | – | –
8 | O=c1ccc2c(cc(O)c3ccccc32)o1 | 15 | 31% | 51 | 38% | 55 | 28% | 57% | inactive | – | –
9 | O=c1ccc2c(o1)c(O)cc1ccccc12 | 18 | 20% | 54 | inactive | 46 | 22% | 100% | 79% | – | –
10 | O=c1ccc2cc(O)c3c(c2o1)CCCC3 | – | 38% | 40 | 12% | 44 | 35% | 42% | 68% | – | –
11 | Cc1c(C)c2c(c(C)c1O)CCC(C)(C(=O)O)O2 (stereo not drawn) | – | – | – | – | – | – | 73% | – | – | –
12 | Cc1cc2oc(=O)ccc2cc1O | – | 20% | 51 | 3% | 51 | 22% | 24% | 54% | – | –
13 | Cc1cc(O)cc2oc(=O)ccc12 | – | 43% | 54 | 27% | 31 | 43% | 30% | 61% | – | –
14 | O=C(O)/C=C/c1ccc(O)c(O)c1 [CAFFEIC ACID] | – | – | – | – | – | – | – | 71% | 600 | –
15 | O=c1ccc2ccc(O)cc2o1 [UMBELLIFERONE] | – | inactive | 2 | – | 2 | inactive | 83% | 65% | 43 | inactive
